# Results taken from patent publication US20210330611A1, “THERAPY FOR NEUROLOGICAL DISEASES/DISORDERS” (priority 2020, published 2021).
# Where a name gives a salt, the structure may show the parent alone. Read-outs that look alike come from different tables or passages of the source.
# What was measured:
# Format in all cases: cell-based, rat
# [1] = tested on: fibrin-induced microglia activation; experiment: Image-based assay of fibrin-induced microglia activation (HTS and dose response); details: for inhibition at 10 µM: read-out: Fibrin % inhibition
# [2] = tested on: LPS-induced microglia activation; experiment: Image-based assay of LPS-induced microglia activation (HTS and dose response); details: for inhibition at 10 µM: read-out: LPS % inhibition
# [3] = tested on: fibrin- and LPS-induced microglia activation; experiment: cells
# [4] = Rattus norvegicus, Microglia, primary microglia HTS, fibrin stimulation, increased cell size (>800 μm^2) as marker of activation
# [5] = Rattus norvegicus, Microglia, 48 h, primary microglia HTS, LPS stimulation, increased cell size (>800 μm^2) as marker of activation
# [6] = quadrant by fibrin and LPS inhibition in HTS of 1907 compounds
# [7] = Rattus norvegicus, Microglia, 48 h
# [8] = Table 7, fib = fibrin, LPS, tox = toxicity
# [9] = primary microglia HTS, fibrin stimulation, compounds at 10 μM
# [10] = primary microglia HTS, LPS stimulation, compounds at 10 μM
# [11] = classification by fibrin and LPS inhibition, HTS at 10 μM
# [12] = primary HTS, 10 μM, fibrin-stimulated primary microglia
# [13] = primary HTS, 10 μM, LPS-stimulated primary microglia
# [14] = Rattus norvegicus, Microglia, primary microglia HTS, fibrin stimulation, compounds at 10 μM
# [15] = Rattus norvegicus, Microglia, primary microglia HTS, LPS stimulation, compounds at 10 μM
# [16] = quadrant by fibrin and LPS inhibition, HTS at 10 μM
# [17] = primary microglia HTS, fibrin stimulation, activation = cell size >800 μm2
# [18] = primary microglia HTS, LPS stimulation, activation = cell size >800 μm2
compound,measurement,setting,value
C#CC1(O)CC[C@H]2[C@@H]3CCC4=CC(=O)CC[C@@H]4[C@H]3CC[C@@]21CC (stereo partly drawn) [Norgestrel],inhibition at 10 µM,[1]; [4],4%
same,inhibition at 10 µM,[2]; [5],22%
same,Quadrant (FIG. 5b),[3]; [6],Q4
O=C(O)COCCN1CCN(C(c2ccccc2)c2ccc(Cl)cc2)CC1 (stereo not drawn) [Cetirizine],inhibition at 10 µM,"[1]; Rattus norvegicus, Microglia",5%
same,inhibition at 10 µM,"[2]; Rattus norvegicus, Microglia",0%
same,Quadrant (FIG. 5b),[3],Q4
Nc1ccc(S(N)(=O)=O)cc1 [Sulfanilamide],inhibition at 10 µM,"[1]; Rattus norvegicus, Microglia",-14%
same,inhibition at 10 µM,"[2]; Rattus norvegicus, Microglia",11%
same,Quadrant (FIG. 5b),[3],Q4
NS(=O)(=O)c1cc(C(=O)O)c(NCc2ccco2)cc1Cl [Furosemide],inhibition at 10 µM,"[1]; Rattus norvegicus, Microglia",-5%
same,inhibition at 10 µM,[2]; [7],25%
same,Quadrant (FIG. 5b),[3],Q4
CC(N)C(O)c1ccccc1 (stereo not drawn) [Phenylpropanolamine],inhibition at 10 µM,"[1]; Rattus norvegicus, Microglia",-2%
same,inhibition at 10 µM,[2]; [7],-6%
same,Quadrant (FIG. 5b),[3],Q4
"CC(C)c1c(C(=O)Nc2ccccc2)c(-c2ccccc2)c(-c2ccc(F)cc2)n1CC[C@@H](O)C[C@@H](O)CC(=O)[O-].CC(C)c1c(C(=O)Nc2ccccc2)c(-c2ccccc2)c(-c2ccc(F)cc2)n1CC[C@@H](O)C[C@@H](O)CC(=O)[O-].[Ca+2] [Atorvastatin calcium, reference compound]",IC50,[1]; read-out: Fibrin IC50,0.6 µM
same,IC50,[1]; read-out: Fibrin IC50 (uM) (Suppl. Table 7),0.6 µM
same,LPS % inhibition,[2],88%
same,IC50,[2]; read-out: LPS IC50,3 µM
same,IC50,[2]; read-out: LPS IC50 (uM) (Suppl. Table 7),3 µM
same,Cherry-picked Hit (Suppl. Table 7),[3],HIT (key: HIT: Hits were defined as molecules that exhibited greater than 50% inhibition of either fibrin or LPS activation)
same,Hit,[3],HIT (key: HIT: Hits were defined as molecules that exhibited greater than 50% inhibition of either fibrin or LPS activation)
same,Quadrant (FIG. 5b),[3],Q2
C[C@H](N)[C@H](O)c1ccccc1.Cl,Fibrin % inhibition,[1],−15%
same,LPS % inhibition,[2],7%
same,Quadrant (FIG. 5b),[3],Q4
Cc1cc(NS(=O)(=O)c2ccc(N)cc2)no1 [Sulfamethoxazole],inhibition at 10 µM,"[1]; Rattus norvegicus, Microglia",-17%
same,inhibition at 10 µM,"[2]; Rattus norvegicus, Microglia",17%
same,Quadrant (FIG. 5b),[3],Q4
O=C(O)COCCN1CCN([C@H](c2ccccc2)c2ccc(Cl)cc2)CC1 [Levocetirizine Dihydrochloride],inhibition at 10 µM,"[1]; Rattus norvegicus, Microglia",-44%
same,inhibition at 10 µM,[2]; [7],-2%
same,Quadrant (FIG. 5b),[3],Q4
O=C(CCBr)N1CCN(C(=O)CCBr)CC1 [Pipobroman],inhibition at 10 µM,"[1]; Rattus norvegicus, Microglia",-28%
same,inhibition at 10 µM,[2]; [7],0%
same,Quadrant (FIG. 5b),[3],Q4
CC(C)(CO)[C@@H](O)C(=O)NCCC(=O)NCCSSCCNC(=O)CCNC(=O)[C@H](O)C(C)(C)CO [Pantethine],inhibition at 10 µM,"[1]; Rattus norvegicus, Microglia",-53%
same,inhibition at 10 µM,[2]; [7],7%
same,Quadrant (FIG. 5b),[3],Q4
podophyllotoxin acetate,fib_HS,"[1]; Hill slope of fibrin dose response, Table 7",−1.10
same,fib specificity,[1]; Table 7,0.5
same,LPS_HS,"[2]; Hill slope of LPS dose response, Table 7",−0.87
same,LPS specificity,[2]; Table 7,1.8
same,IC50,"[2]; Table 7, read-out: LPS_IC50",0.012 µM
same,Activity,[3]; [8],fib/LPS
CCn1cc(C(=O)O)c(=O)c2cc(F)c(N3CCNC(C)C3)c(F)c21 (stereo not drawn) [Lomefloxacin],inhibition at 10 µM,"[1]; Rattus norvegicus, Microglia",7%
same,inhibition at 10 µM,[2]; [7],15%
same,Quadrant (FIG. 5b),[3],Q4
CCOP(=S)(OCC)Oc1ccc2c(C)c(Cl)c(=O)oc2c1 [Coumophos],Fibrin % inhibition,[1]; [9],−12%
same,LPS % inhibition,[2]; [10],16%
same,Quadrant (FIG. 5b),[3]; [11],Q4
CCCCCCCCCCCCCCCC(=O)O[C@@H]1[C@@H](O)[C@@H](O)[C@@H]([C@H](NC(=O)[C@@H]2C[C@@H](CCC)CN2C)[C@H](C)Cl)O[C@@H]1SC.Cl [Clindamycin Palmitate Hydrochloride],Fibrin % inhibition,[1]; [12],−23%
same,LPS % inhibition,[2]; [13],11%
same,Quadrant (FIG. 5b),"[3]; primary HTS, 10 μM",Q4
CN1[C@@H]2C[C@@H](OC(=O)[C@H](CO)c3ccccc3)C[C@H]1[C@@H]1O[C@@H]12 [Scopolamine Hydrobromide],Fibrin % inhibition,[1],5%
same,LPS % inhibition,[2],3%
same,Quadrant (FIG. 5b),[3],Q4
CC(C)(C(=O)O)c1ccc(C(O)CCCN2CCC(C(O)(c3ccccc3)c3ccccc3)CC2)cc1 (stereo not drawn) [Fexofenadine],inhibition at 10 µM,"[1]; Rattus norvegicus, Microglia",13%
same,inhibition at 10 µM,[2]; [7],14%
same,Quadrant (FIG. 5b),[3],Q4
Cc1cc2nc3c(=O)[nH]c(=O)nc-3n(C[C@H](O)[C@H](O)[C@H](O)COP(=O)([O-])O)c2cc1C.[Na+] [Riboflavin 5-phosphate Sodium],Fibrin % inhibition,"[1]; primary microglia HTS, fibrin stimulation, cell size >800 μm2 as marker of activation",11%
same,LPS % inhibition,[2],24%
same,Quadrant (FIG. 5b),[3]; classification by fibrin and LPS inhibition in HTS,Q4
Hydrocortisone sodium phosphate [reference compound],fib specificity,[1],1.3
same,fib_HS,[1],−0.52
same,IC50,[1]; read-out: fib_IC50,0.128 µM
same,LPS specificity,[2],0.8
same,LPS_HS,[2],−0.69
same,IC50,[2]; read-out: LPS_IC50,0.161 µM
same,Activity,[3],fib/LPS
same,Quadrant (FIG. 5b),[3],Q2
CC1=C(C(=O)O)N2C(=O)[C@@H](NC(=O)[C@H](N)c3ccccc3)[C@H]2SC1 [Cephalexin],inhibition at 10 µM,"[1]; Rattus norvegicus, Microglia",-1%
same,inhibition at 10 µM,"[2]; Rattus norvegicus, Microglia",17%
same,Quadrant (FIG. 5b),[3],Q4
C[N+]1(C)CCC(OC(=O)C(O)(c2ccccc2)C2CCCC2)C1 (stereo not drawn) [Glycopyrrolate],inhibition at 10 µM,"[1]; Rattus norvegicus, Microglia",-33%
same,inhibition at 10 µM,[2]; [7],3%
same,Quadrant (FIG. 5b),[3],Q4
"CNCCC(Oc1ccc(C(F)(F)F)cc1)c1ccccc1.Cl (stereo not drawn) [Fluoxetine Hydrochloride, Fluoxetine]",Fibrin % inhibition,[1],46%
same,LPS % inhibition,[2],65%
same,Quadrant (FIG. 5b),[3],Q1
CNCC[C@@H](Oc1ccccc1C)c1ccccc1 [Atomoxetine Hydrochloride],inhibition at 10 µM,[1]; [14],15%
same,inhibition at 10 µM,[2]; [15],7%
same,Quadrant (FIG. 5b),[3]; [16],Q4
COC(=O)C1=C(C)NC(C)=C(C(=O)OC)C1c1ccccc1[N+](=O)[O-] [Nifedipine],inhibition at 10 µM,"[1]; Rattus norvegicus, Microglia",-36%
same,inhibition at 10 µM,[2]; [7],2%
same,Quadrant (FIG. 5b),[3],Q4
COC(=O)C1=CCCN(C)C1 [Arecoline],inhibition at 10 µM,[1]; [14],17%
same,inhibition at 10 µM,[2]; [15],14%
same,Quadrant (FIG. 5b),[3]; [16],Q4
C=C(C)[C@H]1CC=C(C)CC1 [D-limonene],Fibrin % inhibition,[1]; [9],−19%
same,LPS % inhibition,[2]; [10],11%
same,Quadrant (FIG. 5b),[3]; [11],Q4
CN(C)CCOC(c1ccccc1)c1ccccc1 [Diphenhydramine],inhibition at 10 µM,"[1]; Rattus norvegicus, Microglia",-47%
same,inhibition at 10 µM,"[2]; Rattus norvegicus, Microglia",15%
same,Quadrant (FIG. 5b),[3],Q4
CCC1=C[C@@H]2CN(C1)Cc1c([nH]c3ccccc13)[C@@](C(=O)OC)(c1cc3c(cc1OC)N(C)[C@H]1[C@@](O)(C(=O)OC)[C@H](OC(C)=O)[C@]4(CC)C=CCN5CC[C@]31[C@@H]54)C2 [Vinorelbine],inhibition at 10 µM,"[1]; Rattus norvegicus, Microglia, primary microglia HTS, 10 μM, fibrin-stimulated, cell size >800 μm^2 as marker of activation",-12%
same,inhibition at 10 µM,[1]; [14],108%
same,inhibition at 10 µM,"[2]; Rattus norvegicus, Microglia, primary microglia HTS, 10 μM, LPS-stimulated, cell size >800 μm^2 as marker of activation",-11%
same,inhibition at 10 µM,[2]; [15],106%
same,Quadrant (FIG. 5b),"[3]; HTS of 1907 compounds, quadrant by fibrin and LPS inhibition",Q4
same,Quadrant (FIG. 5b),[3]; [16],Q2
O=C(CCCN1CCN(c2ccccn2)CC1)c1ccc(F)cc1 [Azaperone],inhibition at 10 µM,[1]; [14],-4%
same,inhibition at 10 µM,[2]; [15],12%
same,Quadrant (FIG. 5b),[3]; [16],Q4
CCCCc1oc2ccccc2c1C(=O)c1cc(I)c(OCCN(CC)CC)c(I)c1 [Amiodarone],inhibition at 10 µM,"[1]; Rattus norvegicus, Microglia",-4%
same,inhibition at 10 µM,"[2]; Rattus norvegicus, Microglia",13%
same,Quadrant (FIG. 5b),[3],Q4
CCCNCC(O)COc1ccccc1C(=O)CCc1ccccc1 (stereo not drawn) [Propafenone],inhibition at 10 µM,"[1]; Rattus norvegicus, Microglia",16%
same,inhibition at 10 µM,[2]; [7],21%
same,Quadrant (FIG. 5b),[3],Q4
Cc1nc(Nc2ncc(C(=O)Nc3c(C)cccc3Cl)s2)cc(N2CCN(CCO)CC2)n1 [Dasatinib],inhibition at 10 µM,[1]; [4],109%
same,inhibition at 10 µM,[2]; [5],70%
same,Quadrant (FIG. 5b),[3]; [6],Q2
O=C(O)c1nc2cc(Cl)c(Cl)cc2nc1O,IC50,"[1]; Rattus norvegicus, Microglia, Table 7, read-out: fib_IC50",2.65 µM
same,IC50,"[2]; Rattus norvegicus, Microglia, Table 7, read-out: LPS_IC50",≥ 5 µM
same,Activity,[3]; [8],fib/LPS
Hexylene Glycol,Fibrin % inhibition,[1]; [17],−8%
same,LPS % inhibition,[2]; [18],12%
same,Quadrant (FIG. 5b),[3]; [6],Q4
Beta-escin,Fibrin % inhibition,[1]; [12],−11%
same,LPS % inhibition,[2]; [13],11%
same,Quadrant (FIG. 5b),"[3]; primary HTS, 10 μM",Q4
O=C(O)CCCCC1CCSS1 (stereo not drawn) [Lipoic Acid],Fibrin % inhibition,[1]; [17],−38%
same,LPS % inhibition,[2]; [18],39%
same,Quadrant (FIG. 5b),[3]; [6],Q4
CC(=O)OCC(=O)[C@@]1(O)CC[C@H]2[C@@H]3C[C@H](C)C4=CC(=O)C=C[C@]4(C)[C@H]3[C@@H](O)C[C@@]21C [6alpha-methylprednisolone acetate],fib specificity,[1],1.0
same,fib_HS,[1],−0.26
same,LPS specificity,[2],1.0
same,LPS_HS,[2],−0.40
same,Activity,[3],fib/LPS
COc1cc2c(cc1OC)C(=O)C(CC1CCN(Cc3ccccc3)CC1)C2 (stereo not drawn) [Donepezil],inhibition at 10 µM,"[1]; Rattus norvegicus, Microglia",5%
same,inhibition at 10 µM,"[2]; Rattus norvegicus, Microglia",17%
same,Quadrant (FIG. 5b),[3],Q4
CC(C)C[C@H](CN)CC(=O)O [Pregabalin],inhibition at 10 µM,"[1]; Rattus norvegicus, Microglia",-5%
same,inhibition at 10 µM,[2]; [7],1%
same,Quadrant (FIG. 5b),[3],Q4
